≈ marks a conversion by molar mass, not a printed value. Calls of active or inactive are those of the source. No cut-off for these calls is given here.
What was measured:
Klebsiella pneumoniae [1] = experiment: Antimicrobial activity against Klebsiella pneumoniae CRE harboring beta-lactamase KPC-2 by broth dilution method; format: functional
Pseudomonas aeruginosa [2] = experiment: Microbicidal activity against Pseudomonas aeruginosa (560546)9 M.P. selected after 4 times MIC compound exposure; format: functional
Enterobacter cloacae [3] = experiment: Antimicrobial activity against Enterobacter cloacae S4741B assessed as highest concentration at which colonies reappeared; format: functional
[4] = Inhibition of Escherichia coli Penicillin-binding protein 2
[5] = Inhibition of Beta-lactamase IMP1
[6] = Inhibition of beta-lactamase TEM-3
Pseudomonas aeruginosa [7] = experiment: Antimicrobial activity against Pseudomonas aeruginosa 1937E harboring beta-lactamase PSE-4 and class C enzymes by broth dilution method; format: functional
Klebsiella pneumoniae [8] = experiment: Antimicrobial activity against Klebsiella pneumoniae by broth dilution method; format: functional
[9] = Inhibition of beta-lactamase KPC-2
Pseudomonas aeruginosa [10] = experiment: Microbicidal activity against Pseudomonas aeruginosa 527 selected after 4 times MIC compound exposure; format: functional
Enterobacter cloacae [11] = experiment: Antimicrobial activity against Enterobacter cloacae S9369 assessed as log reduction in colony count after 24 hrs; format: functional
Pseudomonas aeruginosa [12] = experiment: Microbicidal activity against Pseudomonas aeruginosa BA selected after 8 times MIC compound exposure; format: functional
Escherichia coli [13] = experiment: Antimicrobial activity against Escherichia coli W3110 assessed as appearance of short filaments at 4 ug/mL after 3 hrs by phase-contrast microscopy; format: functional, organism-based
Pseudomonas aeruginosa [14] = experiment: Microbicidal activity against Pseudomonas aeruginosa HPA10586 selected after 8 times MIC compound exposure; format: functional
Enterobacteriaceae = experiment: Antimicrobial activity against Enterobacteriaceae by broth dilution method; format: functional
Proteus vulgaris = experiment: Antimicrobial activity against Proteus vulgaris by broth dilution method; format: functional
Escherichia coli [15] = experiment: Antimicrobial activity against Escherichia coli W3110 assessed as appearance of spheroplast at 4 ug/mL after 3 hrs by phase-contrast microscopy; format: functional, organism-based
[16] = Inhibition of beta-lactamase SHV-4
[17] = Inhibition of Pseudomonas aeruginosa 143724R beta-lactamase class C
Pseudomonas aeruginosa [18] = experiment: Antimicrobial activity against Pseudomonas aeruginosa BA assessed as number of passages required for MIC to rise above 4 times original MIC; format: functional
[19] = tested on: Stenotrophomonas maltophilia; experiment: Microbicidal activity against Stenotrophomonas maltophilia 1AC736 selected after MIC of compound exposure; format: functional
Providencia rettgeri = experiment: Antimicrobial activity against Providencia rettgeri J96 harboring beta-lactamase IMP-1 by broth dilution method; format: functional
Enterobacter cloacae [20] = experiment: Antimicrobial activity against Enterobacter cloacae by broth dilution method; format: functional
Klebsiella pneumoniae [21] = experiment: Antimicrobial activity against Klebsiella pneumoniae 1338665 assessed as appearance of colony at 4 times MIC concentration; format: functional, organism-based
Acinetobacter baumannii [22] = experiment: Antimicrobial activity against Acinetobacter baumannii HPA74510 assessed as highest concentration at which colonies reappeared; format: functional
Escherichia coli [23] = experiment: Antimicrobial activity against Escherichia coli W3110 assessed as highest concentration at which colonies reappeared; format: functional
Escherichia coli [24] = experiment: Antimicrobial activity against Escherichia coli HB101 harboring beta-lactamase TEM-5 by broth dilution method; format: functional
Escherichia coli [25] = experiment: Antimicrobial activity against Escherichia coli CF102 harboring beta-lactamase TEM-3 by broth dilution method; format: functional
Beta-lactamase = Beta-lactamase (Citrobacter freundii, UniProt P05193); experiment: Inhibition of Citrobacter freundii AmpC
Pseudomonas aeruginosa [26] = experiment: Antimicrobial activity against mexAB-oprM protein and mexCD-oprJ deficient Pseudomonas aeruginosa PAO238 by broth dilution method; format: functional
Pseudomonas aeruginosa [27] = experiment: Antimicrobial activity against Pseudomonas aeruginosa HPA10586 assessed as log reduction in colony count within 6 hrs selected after 1 to 16 times MIC compound exposure; format: functional, organism-based
Pseudomonas aeruginosa [28] = experiment: Antimicrobial activity against Pseudomonas aeruginosa 621 assessed as number of passages required for MIC to rise above 4 times original MIC; format: functional
Pseudomonas aeruginosa [29] = experiment: Antimicrobial activity against oprD protein deficient Pseudomonas aeruginosa C2 by broth dilution method; format: functional
Escherichia coli [30] = experiment: Antimicrobial activity against Escherichia coli by broth dilution method; format: functional
Proteus penneri = experiment: Antimicrobial activity against Proteus penneri by broth dilution method; format: functional
[31] = Inhibition of beta-lactamase VIM-1
[32] = Inhibition of Escherichia coli Penicillin-binding protein 1A
Acinetobacter junii [33] = experiment: Antimicrobial activity against Acinetobacter junii 15218 assessed as number of passages required for MIC to rise above 4 times original MIC; format: functional
Escherichia coli [34] = experiment: Antimicrobial activity against Escherichia coli Libyien harboring beta-lactamase CMY-2 by broth dilution method; format: functional
[35] = Inhibition of beta-lactamase SHV-2
Klebsiella pneumoniae [36] = experiment: Antimicrobial activity against Klebsiella pneumoniae 1338665 assessed as number of passages required for MIC to rise above 4 times original MIC; format: functional
Enterobacter cloacae [37] = experiment: Antimicrobial activity against Enterobacter cloacae S4741B assessed as log reduction in colony count after 24 hrs; format: functional
Enterobacter cloacae [38] = experiment: Antimicrobial activity against Enterobacter cloacae S9369 assessed as highest concentration at which colonies reappeared; format: functional
Acinetobacter baumannii [39] = experiment: Antimicrobial activity against Acinetobacter baumannii HPA74510 harboring beta-lactamase IMP-4 by broth dilution method; format: functional
Pseudomonas aeruginosa [40] = experiment: Antimicrobial activity against Pseudomonas aeruginosa 1973E harboring beta-lactamase PSE-1 and class C enzymes by broth dilution method; format: functional
Enterobacter cloacae [41] = experiment: Microbicidal activity against Enterobacter cloacae S9369 selected after 8 times MIC compound exposure; format: functional
Acinetobacter junii [42] = experiment: Antimicrobial activity against Acinetobacter junii 15218 assessed as highest concentration at which colonies reappeared; format: functional
Enterobacter cloacae [43] = experiment: Antimicrobial activity against Enterobacter cloacae S4741B assessed as number of passages required for MIC to rise above 4 times original MIC; format: functional
Pseudomonas aeruginosa [44] = experiment: Antimicrobial activity against Pseudomonas aeruginosa BA assessed as appearance of colony at 4 times MIC concentration; format: functional
Pseudomonas aeruginosa [45] = experiment: Antimicrobial activity against Pseudomonas aeruginosa 527 assessed as number of passages required for MIC to rise above 4 times original MIC; format: functional
[46] = Inhibition of Pseudomonas aeruginosa 18S/H beta-lactamase class C
Pseudomonas aeruginosa [47] = experiment: Antimicrobial activity against Pseudomonas aeruginosa BA(C2-107) mutant assessed as doubling time; format: functional
Pseudomonas aeruginosa [48] = experiment: Antimicrobial activity against Pseudomonas aeruginosa 621 by broth dilution method; format: functional
Pseudomonas aeruginosa [49] = experiment: Antimicrobial activity against Pseudomonas aeruginosa 527 by broth dilution method; format: functional
Pseudomonas aeruginosa [50] = experiment: Antimicrobial activity against Pseudomonas aeruginosa BA assessed as doubling time; format: functional
Acinetobacter junii [51] = experiment: Antimicrobial activity against Acinetobacter junii 15218 by broth dilution method; format: functional
Pseudomonas aeruginosa [52] = experiment: Antimicrobial activity against Pseudomonas aeruginosa 527 assessed as appearance of colony at 4 times MIC concentration; format: functional
Escherichia coli [53] = experiment: Antimicrobial activity against Escherichia coli W3110 by broth dilution method; format: functional
Enterobacter cloacae [54] = experiment: Antimicrobial activity against Enterobacter cloacae S4741B by broth dilution method; format: functional
Pseudomonas aeruginosa [55] = experiment: Antimicrobial activity against Pseudomonas aeruginosa 860 by broth dilution method; format: functional

Beta-lactamase, sequence (P05193 whole entry): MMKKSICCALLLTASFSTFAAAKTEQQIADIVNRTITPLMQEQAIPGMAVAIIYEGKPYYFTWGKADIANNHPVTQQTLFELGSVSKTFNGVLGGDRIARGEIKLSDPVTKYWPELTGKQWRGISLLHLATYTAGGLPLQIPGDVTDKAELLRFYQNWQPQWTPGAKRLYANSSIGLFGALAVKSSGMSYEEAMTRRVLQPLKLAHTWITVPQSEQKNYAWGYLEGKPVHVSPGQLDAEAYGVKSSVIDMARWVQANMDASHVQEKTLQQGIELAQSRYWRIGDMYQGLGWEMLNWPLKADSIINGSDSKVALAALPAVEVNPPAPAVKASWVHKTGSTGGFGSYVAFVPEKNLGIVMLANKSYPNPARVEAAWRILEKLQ

CC1(C)[C@H](NC(=O)/C(=N\OCc2cc(=O)c(O)cn2O)c2csc(N)n2)C(=O)N1OS(=O)(=O)O (stereo in doubt)
MIC (Klebsiella pneumoniae [1]): ≤ 0.06 µg/mL | MBC (Pseudomonas aeruginosa [2]): 4 µg/mL (≈ 7.71 µM) | Activity (Enterobacter cloacae [3]): 16 mg/L | IC50 [4]: 30 µM | IC50 [5]: > 2500 µM | IC50 [6]: 4.6 µM | MIC (Pseudomonas aeruginosa [7]): 2 µg/mL (≈ 3.86 µM) | MIC50 (Klebsiella pneumoniae [8]): 16 µg/mL (≈ 30.9 µM) | MIC90 (Klebsiella pneumoniae [8]): > 32 µg/mL | IC50 [9]: > 2500 µM | MBC (Pseudomonas aeruginosa [10]): 8 µg/mL (≈ 15.4 µM) | FC (Enterobacter cloacae [11]): 3 | MBC (Pseudomonas aeruginosa [12]): 4 µg/mL (≈ 7.71 µM) | Activity (Escherichia coli [13]): Active | MBC (Pseudomonas aeruginosa [14]): 8 µg/mL (≈ 15.4 µM) | MIC50 (Enterobacteriaceae): 2 µg/mL (≈ 3.86 µM) | MIC (Proteus vulgaris): ≤ 0.06 µg/mL | MIC50 (Proteus vulgaris): ≤ 0.06 µg/mL | MIC90 (Proteus vulgaris): 0.25 µg/mL (≈ 0.482 µM) | Activity (Escherichia coli [15]): Active | IC50 [16]: 4.3 µM | IC50 [17]: 27 µM | Activity (Pseudomonas aeruginosa [18]): 5 passages | MBC [19]: 0.125 µg/mL | MIC (Providencia rettgeri): 0.125 µg/mL (≈ 0.241 µM) | MIC50 (Enterobacter cloacae [20]): 4 µg/mL (≈ 7.71 µM) | MIC90 (Enterobacter cloacae [20]): > 32 µg/mL | Activity (Klebsiella pneumoniae [21]): Active | Activity (Acinetobacter baumannii [22]): 4 mg/L | Activity (Escherichia coli [23]): 1 mg/L | MIC (Escherichia coli [24]): 32 µg/mL (≈ 61.7 µM) | MIC (Escherichia coli [25]): 4 µg/mL (≈ 7.71 µM) | IC50 (Beta-lactamase): 2.7 µM | MIC (Pseudomonas aeruginosa [26]): 0.125 µg/mL (≈ 0.241 µM) | Activity (Pseudomonas aeruginosa [27]): Active | Activity (Pseudomonas aeruginosa [28]): 5 passages | MIC (Pseudomonas aeruginosa [29]): 0.25 µg/mL (≈ 0.482 µM) | MIC50 (Escherichia coli [30]): 1 µg/mL (≈ 1.93 µM) | MIC90 (Escherichia coli [30]): > 32 µg/mL | MIC (Proteus penneri): ≤ 0.06 µg/mL | MIC50 (Proteus penneri): ≤ 0.06 µg/mL | MIC90 (Proteus penneri): 0.25 µg/mL (≈ 0.482 µM) | IC50 [31]: > 500 µM | IC50 [32]: 3.9 µM | Activity (Acinetobacter junii [33]): 20 passages | MIC (Escherichia coli [34]): 4 µg/mL (≈ 7.71 µM) | IC50 [35]: 3.4 µM | Activity (Klebsiella pneumoniae [36]): 9 passages | FC (Enterobacter cloacae [37]): 3 | Activity (Enterobacter cloacae [38]): 8 mg/L | MIC (Acinetobacter baumannii [39]): 0.25 µg/mL (≈ 0.482 µM) | MIC (Pseudomonas aeruginosa [40]): 4 µg/mL (≈ 7.71 µM) | MBC (Enterobacter cloacae [41]): 8 µg/mL (≈ 15.4 µM) | Activity (Acinetobacter junii [42]): 1 mg/L | Activity (Enterobacter cloacae [43]): 9 passages | Activity (Pseudomonas aeruginosa [44]): Active | Activity (Pseudomonas aeruginosa [44]; record 2): 2.1 frequency | Activity (Pseudomonas aeruginosa [45]): 9 passages | IC50 [46]: 28 µM

C[C@@H](O)[C@H]1C(=O)N2C(C(=O)O)=C(S[C@@H]3CN[C@H](C(=O)N(C)C)C3)[C@H](C)[C@H]12 [MEROPENEM]
Time (Pseudomonas aeruginosa [47]): 4.1 h | MIC (Klebsiella pneumoniae [1]): > 32 µg/mL | MIC (Pseudomonas aeruginosa [48]): 0.125 µg/mL (≈ 0.326 µM) | MIC (Pseudomonas aeruginosa [7]): 1 µg/mL (≈ 2.61 µM) | MIC50 (Klebsiella pneumoniae [8]): ≤ 0.06 µg/mL | MIC90 (Klebsiella pneumoniae [8]): 16 µg/mL (≈ 41.7 µM) | MIC50 (Proteus vulgaris): 0.125 µg/mL (≈ 0.326 µM) | MIC90 (Proteus vulgaris): 0.5 µg/mL (≈ 1.3 µM) | MIC (Pseudomonas aeruginosa [49]): 2 µg/mL (≈ 5.22 µM) | Activity (Pseudomonas aeruginosa [18]): 3 passages | MIC (Providencia rettgeri): > 32 µg/mL | Time (Pseudomonas aeruginosa [50]): 1.5 h | MIC (Enterobacter cloacae [20]): ≤ 0.06 µg/mL | MIC50 (Enterobacter cloacae [20]): ≤ 0.06 µg/mL | MIC90 (Enterobacter cloacae [20]): 0.25 µg/mL (≈ 0.652 µM) | Activity (Klebsiella pneumoniae [21]): inactive | MIC (Acinetobacter junii [51]): 0.25 µg/mL (≈ 0.652 µM) | MIC (Escherichia coli [24]): ≤ 0.06 µg/mL | Activity (Pseudomonas aeruginosa [52]): inactive | MIC (Escherichia coli [53]): 0.25 µg/mL (≈ 0.652 µM) | MIC (Escherichia coli [25]): ≤ 0.06 µg/mL | MIC (Pseudomonas aeruginosa [26]): 0.5 µg/mL (≈ 1.3 µM) | MIC (Enterobacter cloacae [54]): 1 µg/mL (≈ 2.61 µM) | Activity (Pseudomonas aeruginosa [28]): 2 passages | MIC (Pseudomonas aeruginosa [55]): 4 µg/mL (≈ 10.4 µM) | MIC (Pseudomonas aeruginosa [29]): 1 µg/mL (≈ 2.61 µM) | MIC50 (Escherichia coli [30]): ≤ 0.06 µg/mL | MIC90 (Escherichia coli [30]): 0.5 µg/mL (≈ 1.3 µM) | MIC50 (Proteus penneri): 0.125 µg/mL (≈ 0.326 µM) | MIC90 (Proteus penneri): 0.5 µg/mL (≈ 1.3 µM) | Activity (Acinetobacter junii [33]): 9 passages | MIC (Escherichia coli [34]): 0.125 µg/mL (≈ 0.326 µM) | Activity (Klebsiella pneumoniae [36]): inactive | MIC (Acinetobacter baumannii [39]): 32 µg/mL (≈ 83.4 µM) | MIC (Pseudomonas aeruginosa [40]): 4 µg/mL (≈ 10.4 µM) | Activity (Enterobacter cloacae [43]): 7 passages | Activity (Pseudomonas aeruginosa [44]): 1 frequency | Activity (Pseudomonas aeruginosa [45]): 3 passages
